# Results published in patent publication US10000469B2, “Heat shock protein 70 (hsp-70) receptor ligands” (Duke University, priority 2014, dated 2018).
# “Also recorded” adds a separate entry of the source.
# Tests used:
# NF639 = assay: Cell proliferation, NF639; type: cell-based, mouse
# Method: (§1) Cell Proliferation: Cell proliferation was determined using a Hoechst stain (Sigma, St. Louis, Mo.) to quantify DNA. 5,000 cells of the designated cell line were plated in 96 well plates and treated the next day, designated as time point 0, with the indicated concentration of the specified compound maintained for the duration of the assay. At the indicated time points the media was removed and plated frozen at −80° C. Double distilled H2O was then added and the plates were incubated at 37° C. for 1 hour. After 1 hour the plates were frozen at −80° C. After freezing the plates were thawed and Hoechst stain was diluted 1:1000 in THE buffer (10 mM Tris, 2M NaCl, 1 mM Na2EDTA). The final fluorescence was measured on the Victor X2 plate reader at 355/460 nm, and cell proliferation was determined with the formula: % Cell Proliferation=100×(Sample fluorescence−background fluorescence)/(Control fluorescence−background fluorescence).
# Hsp70i = Hsp70i (Homo sapiens, UniProt P0DMV8); assay: HS-72 affinity resin pull-down from HEK293T lysate, Hsp70i; type: binding; set-up: endogenous in cells; host or cells: HEK 293T; details: free HS-72 incubated with lysate
# Chain of Hsp70i (P0DMV8 whole entry): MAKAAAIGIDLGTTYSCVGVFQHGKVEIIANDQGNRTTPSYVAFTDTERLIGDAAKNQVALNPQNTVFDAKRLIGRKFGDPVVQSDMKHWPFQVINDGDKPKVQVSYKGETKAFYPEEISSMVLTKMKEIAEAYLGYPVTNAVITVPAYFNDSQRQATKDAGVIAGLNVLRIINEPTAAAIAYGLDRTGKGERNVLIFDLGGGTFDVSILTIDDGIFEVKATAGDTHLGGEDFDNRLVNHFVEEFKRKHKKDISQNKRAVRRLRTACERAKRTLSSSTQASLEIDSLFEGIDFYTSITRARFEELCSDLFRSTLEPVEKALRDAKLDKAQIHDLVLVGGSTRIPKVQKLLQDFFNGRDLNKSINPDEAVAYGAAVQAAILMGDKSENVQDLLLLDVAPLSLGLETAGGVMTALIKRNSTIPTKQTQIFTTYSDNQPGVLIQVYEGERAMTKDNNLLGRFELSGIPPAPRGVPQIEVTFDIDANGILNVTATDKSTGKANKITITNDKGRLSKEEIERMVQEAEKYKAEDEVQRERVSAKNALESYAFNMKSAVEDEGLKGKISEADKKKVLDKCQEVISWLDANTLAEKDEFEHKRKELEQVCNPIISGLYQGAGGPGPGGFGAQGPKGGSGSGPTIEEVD
# Method: HS-72 specifically targets Hsp70i over other members of the Hsp70 superfamily. To test the selectivity of the HS-72 scaffold against the broader purinome, HEK 293T cell extracts or pig bladder tissue lysates were applied to the ATP resin and eluted with HS-72, as described for FLECS. The eluates were characterized by SDS-PAGE, silver stain, and MS analysis. […] To more thoroughly determine the specificity of HS-72 for Hsp70i, the HEK 293T eluates were also analyzed for other Hsp70 family members Hsc70, Grp78, and Grp75, as well as Hsp90 by Western blot. […] Next, an affinity resin was synthesized using the HS-72 scaffold, similar to a previously described affinity resin targeting Hsp90 [Hughes et al. (2012). […] Bioorganic & medicinal chemistry 20, 3298-3305]. HEK 293T cell lysate was applied to the resin and subjected to several washes. To confirm selectivity of the HS-72 affinity resin for Hsp70i, free HS-72 was incubated with lysate to inhibit Hsp70i binding to the affinity resin. The linker on the resin was cleaved using sodium dithionite and the samples were subjected to SDS-PAGE and analyzed by Western blot, silver stain, and mass spectrometry. […] These studies identified HS-72 as the first example of a small molecule that can selectively discriminate Hsp70i from other members of the Hsp70 superfamily.
# HS-72 in vivo MTD = details: wild-type mice, IP biweekly for 35 days, up to 30 mg/kg
# Method: (§2) HS-72 in vivo MTD and blood workup: The 5 cohorts consisted of 3 mice each given HS-72 BiW and administered IP in DMSO at 1, 5, 10, 20 and 30 mpk using female FVBs aged to 10 weeks. Body Mass was measured weekly and the mice were monitored for signs of toxicity as per MP1U standard protocol. For blood analysis, 4 mice were injected IP with HS-72 on day 1 and 4, with blood drawn on day 5. 4 mice receiving no treatment were used as controls.
# [1] = test system: Hsp70i, Hsc70, Grp78, Grp75, Hsp90; assay: Elution of HEK 293T cell lysate proteins from the ATP resin (silver stain, Western blot); type: binding; details: Western blot
# Method: (§3) FLECS Screen: A pEGFP-tagged Hsp70i was (plasmid 15215, Addgene, Cambridge, Mass.) used in the FLECS assay and was originally cloned according to [Zeng et al. (2004). Hsp70 dynamics in vivo: effect of heat shock and protein aggregation. Journal of cell science 117, 4991-5000]. ATP used in the assay was purchased from Sigma (St. Louis, Mo.) and a 200 mM stock was prepared with low salt buffer (150 mM NaCl, 25 mM Tris, pH 7.5, 60 mM MgCl2). The γ-phosphate ATP sepharose was synthesized as previously described and stored in low salt buffer [Haystead et al. (1993). Gamma-phosphate-linked ATP-sepharose for the affinity purification of protein kinases. Rapid purification to homogeneity of skeletal muscle mitogen-activated protein kinase kinase. European journal of biochemistry/FEBS 214, 459-467]. FuGENE 6 transfection reagent (Roche, Mannheim, Germany) was used for transfection of GFP-Hsp70i into HEK 293T cells, following the manufacturer protocol. The transfection ensued for 48 hours, upon which time the cells were harvested and lysed in cell lysis buffer (150 mM NaCl, 50 mM Tris, pH 7.5, 1% Triton X-100, 1 mM EDTA, 1 mM DTT, and 1 tablet Complete Mini protease inhibitor (Roche)). Cell lysates were stored at −80° C. until further use. Upon binding the resin lysates were washed 3× with high stringency wash buffer (1 M NaCl, 25 mM Tris, pH 7.5, 60 mM MgCl2, 1 mM DTT) and 3× with low stringency wash buffer (150 mM NaCl, 25 mM Tris, pH 7.5, 60 mM MgCl2, 1 mM DTT). Next the lysates were transferred to 0.2 μm PVDF filter 96-well plate (Corning, Corning, N.Y.) sitting on top of a black flat-bottomed 96-well catch plate (Corning). […]
# (§4) HS-72 specifically targets Hsp70i over other members of the Hsp70 superfamily. […] To more thoroughly determine the specificity of HS-72 for Hsp70i, the HEK 293T eluates were also analyzed for other Hsp70 family members Hsc70, Grp78, and Grp75, as well as Hsp90 by Western blot. […] The linker on the resin was cleaved using sodium dithionite and the samples were subjected to SDS-PAGE and analyzed by Western blot, silver stain, and mass spectrometry. […]
# [2] = biological target: T1, Hsp70i, Hsc70, Grp78, Grp75, Hsp90 (Homo sapiens, UniProt P0DMV8); assay: as above; type: binding; details: few non-specific eluted proteins
# T1 construct: endogenous in cells; host or cells: HEK 293T
# T1 sequence (P0DMV8 2-641): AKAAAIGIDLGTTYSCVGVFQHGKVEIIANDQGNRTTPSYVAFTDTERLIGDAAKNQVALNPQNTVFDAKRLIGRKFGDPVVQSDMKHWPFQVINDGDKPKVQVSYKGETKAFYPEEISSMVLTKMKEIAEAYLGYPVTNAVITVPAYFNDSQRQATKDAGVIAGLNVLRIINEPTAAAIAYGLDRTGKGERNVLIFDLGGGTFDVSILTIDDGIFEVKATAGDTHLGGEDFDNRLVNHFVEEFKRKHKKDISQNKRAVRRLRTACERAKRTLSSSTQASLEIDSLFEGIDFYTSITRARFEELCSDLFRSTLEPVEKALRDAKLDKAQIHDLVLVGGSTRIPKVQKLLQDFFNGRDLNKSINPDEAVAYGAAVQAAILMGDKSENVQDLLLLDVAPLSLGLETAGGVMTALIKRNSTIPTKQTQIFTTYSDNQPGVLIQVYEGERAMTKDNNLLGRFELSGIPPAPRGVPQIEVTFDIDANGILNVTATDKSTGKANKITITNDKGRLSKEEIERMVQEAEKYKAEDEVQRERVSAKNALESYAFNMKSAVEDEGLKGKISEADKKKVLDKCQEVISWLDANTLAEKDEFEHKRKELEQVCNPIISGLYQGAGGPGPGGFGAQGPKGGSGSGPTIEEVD
# Method: as §3, §4
# MCF10A = assay: Cell proliferation, MCF10A; type: cell-based; details: non tumorigenic MCF10A
# Method: as §1
# RWPE1 = assay: Cell proliferation, RWPE1; type: cell-based; details: non tumorigenic RWPE1
# Method: as §1
# [3] = Blood workup after HS-72 treatment; type: in vivo; details: wild-type mice, compared to control mice
# Method: as §2
# MMTV-neu mice = assay: HS-72 in vivo efficacy study; set-up: species or system mouse; details: for tumor volume vs. no treatment: at 21 days, p<0.05
# Method: HS-72 in vivo Efficacy Studies: MMTV-neu mice, a HER2 overexpression breast cancer mouse model in which HER2 is under the transcriptional control of the mouse mammary tumor virus promoter/enhancer, were treated with the indicated doses and dosing schedule [Taneja et al., 2009]. All doses were delivered through IP injections using DMSO and their tumors were calipered once weekly. The mice were culled upon reaching tumor burden or if they expressed signs of toxicity as per MP1U standard protocol.
# BT474 = assay: Cell proliferation, BT474; type: cell-based
# Method: as §1
smiles,measurement,setting,value
"CCCn1c(NC(=O)[C@H]2CCCN(c3cnccn3)C2)nc2ccccc21 [HS-72, (S)—N-(1-propyl-1H-benzo[d]imidazol-2-yl)-1-(pyrazin-2-yl)piperidine-3-carboxamide]","cell proliferation, combination with HS-10",NF639,synergistic inhibition
same,cell proliferation,"NF639; 25 uM and 50 uM at 24, 48, and 72 hours",inhibits proliferation
same,competition of Hsp70i binding to the affinity resin by free compound,Hsp70i,able to block this interaction
same,tolerability in dose escalation,HS-72 in vivo MTD,"no adverse events, reduction in body weight, or altered behavior"
same,Hsp70 family members and Hsp90 eluted from the ATP resin,[1],only inducible Hsp70 was eluted
same,elution of Hsp70 from ATP resin,[2],elutes Hsp70
same,cell proliferation,MCF10A,insensitive; also recorded: continue to grow at all concentrations
same,cell proliferation,RWPE1,insensitive; also recorded: only inhibited at the highest concentration tested
same,complete blood count,[3],no effect on complete blood count
same,kidney function,[3],no effect on kidney function
same,liver function,[3],no effect on liver function
same,increase of median survival vs. no treatment,MMTV-neu mice; I.P. 20 mpk BiW,6 days
same,tumor volume vs. no treatment,"MMTV-neu mice; I.P. 20 mpk BiW, 20 mg/kg",significant reduction
same,tumor volume vs. no treatment,"MMTV-neu mice; I.P. 20 mpk BiW, listed as HS72, 20 mg/kg",significant decrease
same,increase of median survival vs. no treatment,MMTV-neu mice; I.P. 20 mpk qd,13 days
same,cell proliferation,BT474,inhibits proliferation
